Test results: ChEMBL document CHEMBL4673219, “Novel 5,6-disubstituted pyrrolo[2,3-d]pyrimidine derivatives as broad spectrum antiproliferative agents: Synthesis, cell based assays, kinase profile and molecular docking study” (Bioorg Med Chem, 2018)
“And” between values parts separate entries of the source, which are not always exact repeats. Equal values may be shown once.

Columns and labels:
OVCAR-3 = assay: Growth inhibition of human OVCAR-3 cells assessed as growth percentage at 10 uM incubated for 48 hrs by sulforhodamine B assay relative to control; type: functional; details: read-out: Activity
HCT-116 [1] = assay: Growth inhibition of human HCT-116 cells assessed as growth percentage at 10 uM incubated for 48 hrs by sulforhodamine B assay relative to control; type: functional; details: read-out: Activity
NCI-H522 = assay: Growth inhibition of human NCI-H522 cells assessed as growth percentage at 10 uM incubated for 48 hrs by sulforhodamine B assay relative to control; type: functional; details: read-out: Activity
NCI-H23 = assay: Growth inhibition of human NCI-H23 cells assessed as growth percentage at 10 uM incubated for 48 hrs by sulforhodamine B assay relative to control; type: functional; details: read-out: Activity
A549 = assay: Growth inhibition of human A549/ATCC cells assessed as growth percentage at 10 uM incubated for 48 hrs by sulforhodamine B assay relative to control; type: functional; details: read-out: Activity
K562 = assay: Growth inhibition of human K562 cells assessed as growth percentage at 10 uM incubated for 48 hrs by sulforhodamine B assay relative to control; type: functional; details: read-out: Activity
[2] = target: Fibroblast growth factor receptor 2 (Homo sapiens) (UniProt P21802); assay: Inhibition of human FGFR2 at 10 uM using myelin basic protein as substrate incubated for 40 mins in presence of [gamma33P]ATP by scintillation counting method relative to control
Sequence of Fibroblast growth factor receptor 2 (Homo sapiens) (P21802 22-821 limits assumed): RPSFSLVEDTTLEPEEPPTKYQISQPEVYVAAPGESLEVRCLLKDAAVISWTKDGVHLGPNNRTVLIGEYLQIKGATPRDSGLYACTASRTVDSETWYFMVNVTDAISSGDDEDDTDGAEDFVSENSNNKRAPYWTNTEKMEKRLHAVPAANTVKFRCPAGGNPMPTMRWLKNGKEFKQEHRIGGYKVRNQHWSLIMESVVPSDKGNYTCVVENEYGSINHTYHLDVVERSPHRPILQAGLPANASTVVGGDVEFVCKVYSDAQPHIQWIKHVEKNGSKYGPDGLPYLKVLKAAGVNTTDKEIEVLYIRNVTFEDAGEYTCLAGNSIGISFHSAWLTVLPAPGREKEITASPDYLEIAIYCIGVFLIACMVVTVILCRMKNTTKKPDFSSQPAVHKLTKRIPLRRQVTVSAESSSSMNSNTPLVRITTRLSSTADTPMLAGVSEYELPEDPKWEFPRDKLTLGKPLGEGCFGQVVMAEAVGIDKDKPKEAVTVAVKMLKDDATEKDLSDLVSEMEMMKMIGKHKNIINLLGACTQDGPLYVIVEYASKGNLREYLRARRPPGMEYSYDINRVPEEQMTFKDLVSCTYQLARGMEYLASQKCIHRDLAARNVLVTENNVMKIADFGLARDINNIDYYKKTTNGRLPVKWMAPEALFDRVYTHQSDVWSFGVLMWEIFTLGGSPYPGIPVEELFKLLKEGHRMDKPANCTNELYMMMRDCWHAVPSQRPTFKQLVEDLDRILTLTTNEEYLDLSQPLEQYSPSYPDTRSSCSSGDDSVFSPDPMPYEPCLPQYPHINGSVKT

Hs-578T = assay: Growth inhibition of human Hs-578T cells incubated for 48 hrs by sulforhodamine B assay; type: functional
PC-3 = assay: Growth inhibition of human PC-3 cells incubated for 48 hrs by sulforhodamine B assay; type: functional; details: for CC50: read-out: LC50 (the source's name)
SK-OV-3 = assay: Growth inhibition of human SK-OV-3 cells incubated for 48 hrs by sulforhodamine B assay; type: functional; details: for GI50: SK-OV-3
SF-268 [3] = assay: Growth inhibition of human SF-268 cells incubated for 48 hrs by sulforhodamine B assay; type: functional
HCC 2998 [4] = assay: Growth inhibition of human HCC 2998 cells incubated for 48 hrs by sulforhodamine B assay; type: functional
HCT-116 [5] = assay: Antiproliferative activity against human HCT-116 cells assessed as cell growth inhibition at 10 uM measured after 72 hrs by MTT assay relative to control; type: functional; details: read-out: GI
MCF7 = assay: Antiproliferative activity against human MCF7 cells assessed as cell growth inhibition at 10 uM measured after 72 hrs by MTT assay relative to control; type: functional; details: read-out: GI
A498 [6] = assay: Growth inhibition of human A498 cells assessed as growth percentage at 100 uM incubated for 48 hrs by sulforhodamine B assay relative to control; type: functional; details: read-out: Activity
786-0 = assay: Growth inhibition of human 786-0 cells assessed as growth percentage at 100 uM incubated for 48 hrs by sulforhodamine B assay relative to control; type: functional; details: read-out: Activity
SNB-19 = assay: Growth inhibition of human SNB-19 cells assessed as growth percentage at 100 uM incubated for 48 hrs by sulforhodamine B assay relative to control; type: functional; details: read-out: Activity
SW-620 = assay: Growth inhibition of human SW-620 cells assessed as growth percentage at 100 uM incubated for 48 hrs by sulforhodamine B assay relative to control; type: functional; details: read-out: Activity
RPMI-8226 = assay: Growth inhibition of human RPMI-8226 cells assessed as growth percentage at 100 uM incubated for 48 hrs by sulforhodamine B assay relative to control; type: functional; details: read-out: Activity
A498 [7] = assay: Growth inhibition of human A498 cells assessed as growth percentage at 1 uM incubated for 48 hrs by sulforhodamine B assay relative to control; type: functional; details: read-out: Activity
NCI/ADR-RES [8] = assay: Growth inhibition of human NCI/ADR-RES cells assessed as growth percentage at 1 uM incubated for 48 hrs by sulforhodamine B assay relative to control; type: functional; details: read-out: Activity
SF-295 = assay: Growth inhibition of human SF-295 cells assessed as growth percentage at 1 uM incubated for 48 hrs by sulforhodamine B assay relative to control; type: functional; details: read-out: Activity
SF-268 [9] = assay: Growth inhibition of human SF-268 cells assessed as growth percentage at 1 uM incubated for 48 hrs by sulforhodamine B assay relative to control; type: functional; details: read-out: Activity
HCT-116 [10] = assay: Growth inhibition of human HCT-116 cells assessed as growth percentage at 1 uM incubated for 48 hrs by sulforhodamine B assay relative to control; type: functional; details: read-out: Activity
A498 [11] = assay: Growth inhibition of human A498 cells assessed as growth percentage at 0.1 uM incubated for 48 hrs by sulforhodamine B assay relative to control; type: functional; details: read-out: Activity
NCI/ADR-RES [12] = assay: Growth inhibition of human NCI/ADR-RES cells assessed as growth percentage at 0.1 uM incubated for 48 hrs by sulforhodamine B assay relative to control; type: functional; details: read-out: Activity
SK-MEL-5 = assay: Growth inhibition of human SK-MEL-5 cells assessed as growth percentage at 0.1 uM incubated for 48 hrs by sulforhodamine B assay relative to control; type: functional; details: read-out: Activity
SR = assay: Growth inhibition of human SR cells assessed as growth percentage at 0.1 uM incubated for 48 hrs by sulforhodamine B assay relative to control; type: functional; details: read-out: Activity
MOLT-4 = assay: Growth inhibition of human MOLT-4 cells assessed as growth percentage at 0.1 uM incubated for 48 hrs by sulforhodamine B assay relative to control; type: functional; details: read-out: Activity
TK-10 = assay: Growth inhibition of human TK-10 cells assessed as growth percentage at 0.01 uM incubated for 48 hrs by sulforhodamine B assay relative to control; type: functional; details: read-out: Activity
RXF 393 = assay: Growth inhibition of human RXF 393 cells assessed as growth percentage at 0.01 uM incubated for 48 hrs by sulforhodamine B assay relative to control; type: functional; details: read-out: Activity
CAKI-1 = assay: Growth inhibition of human CAKI-1 cells assessed as growth percentage at 0.01 uM incubated for 48 hrs by sulforhodamine B assay relative to control; type: functional; details: read-out: Activity
NCI/ADR-RES [13] = assay: Growth inhibition of human NCI/ADR-RES cells assessed as growth percentage at 0.01 uM incubated for 48 hrs by sulforhodamine B assay relative to control; type: functional; details: read-out: Activity
OVCAR-4 = assay: Growth inhibition of human OVCAR-4 cells assessed as growth percentage at 0.01 uM incubated for 48 hrs by sulforhodamine B assay relative to control; type: functional; details: read-out: Activity
UACC-257 = assay: Growth inhibition of human UACC-257 cells assessed as growth percentage at 0.01 uM incubated for 48 hrs by sulforhodamine B assay relative to control; type: functional; details: read-out: Activity
MDA-MB-435 = assay: Growth inhibition of human MDA-MB-435 cells assessed as growth percentage at 0.01 uM incubated for 48 hrs by sulforhodamine B assay relative to control; type: functional; details: read-out: Activity
LOX IMVI = assay: Growth inhibition of human LOX IMVI cells assessed as growth percentage at 0.01 uM incubated for 48 hrs by sulforhodamine B assay relative to control; type: functional; details: read-out: Activity
HCC 2998 [14] = assay: Growth inhibition of human HCC 2998 cells assessed as growth percentage at 0.01 uM incubated for 48 hrs by sulforhodamine B assay relative to control; type: functional; details: read-out: Activity

Nc1nc2[nH]c(CN3CCN(c4cc(Cl)cc(Cl)c4)CC3)c(CN3CCN(c4cc(Cl)cc(Cl)c4)CC3)c2c(=O)[nH]1
growth at 10 µM (OVCAR-3): 89.7% | growth at 10 µM (HCT-116 [1]): -10.2% | growth at 10 µM (NCI-H522): 83.3% | growth at 10 µM (NCI-H23): 85.7% | growth at 10 µM (A549): 72.7% | growth at 10 µM (K562): -17.6% | inhibition [2]: -0.49% | GI50 (Hs-578T): 1780 nM | TGI (Hs-578T): 4220 nM | GI50 (PC-3): 1760 nM | TGI (PC-3): 3890 nM | CC50 (PC-3): 8610 nM | TGI (SK-OV-3; 48 h): 17500 nM and 1750 nM | GI50 (SK-OV-3; Homo sapiens): 4620 nM | GI50 (SF-268 [3]): 1770 nM | TGI (SF-268 [3]): 3350 nM | GI50 (HCC 2998 [4]; Homo sapiens, HCC 2998, 48 h): 1700 nM | TGI (HCC 2998 [4]; Homo sapiens, HCC 2998, 48 h): 3160 nM | inhibition of growth at 10 µM (HCT-116 [5]): 91.7% | inhibition of growth at 10 µM (MCF7): 82.5% | growth at 100 µM (A498 [6]): -72% | growth at 100 µM (786-0): -41% | growth at 100 µM (SNB-19): -16% | growth at 100 µM (SW-620): -79% | growth at 100 µM (RPMI-8226): -19% | growth at 1 µM (A498 [7]): 75% | growth at 1 µM (NCI/ADR-RES [8]): 102% | growth at 1 µM (SF-295): 89% | growth at 1 µM (SF-268 [9]): 94% | growth at 1 µM (HCT-116 [10]): 87% | growth at 0.1 µM (A498 [11]): 82% | growth at 0.1 µM (NCI/ADR-RES [12]): 97% | growth at 0.1 µM (SK-MEL-5): 98% | growth at 0.1 µM (SR): 105% | growth at 0.1 µM (MOLT-4): 104% | growth at 0.01 µM (TK-10): 101% | growth at 0.01 µM (RXF 393): 95% | growth at 0.01 µM (CAKI-1): 87% | growth at 0.01 µM (NCI/ADR-RES [13]): 101% | growth at 0.01 µM (OVCAR-4): 95% | growth at 0.01 µM (UACC-257): 96% | growth at 0.01 µM (MDA-MB-435): 89% | growth at 0.01 µM (LOX IMVI): 99% | growth at 0.01 µM (HCC 2998 [14]): 106%

CCCCCCCC(=O)Nc1nc2[nH]c(CN3CCN(Cc4cccc(F)c4)CC3)c(CN3CCN(Cc4cccc(F)c4)CC3)c2c(=O)[nH]1
growth at 10 µM (OVCAR-3): -95% | growth at 10 µM (HCT-116 [1]): -96.7% | growth at 10 µM (NCI-H522): -71.5% | growth at 10 µM (NCI-H23): -53.8% | growth at 10 µM (A549): -74.7% | growth at 10 µM (K562): -65.6% | inhibition [2]: 25.9% | GI50 (Hs-578T): 1720 nM | TGI (Hs-578T): 4180 nM | GI50 (PC-3): 1300 nM | TGI (PC-3): 2670 nM | CC50 (PC-3): 5470 nM | GI50 (SK-OV-3; Homo sapiens): 1900 nM | LC50 (SK-OV-3; Homo sapiens, SK-OV-3, 48 h): 5860 nM | TGI (SK-OV-3; Homo sapiens, SK-OV-3, 48 h): 3330 nM | GI50 (SF-268 [3]): 1260 nM | LC50 (SF-268 [3]): 5730 nM | TGI (SF-268 [3]): 2680 nM | GI50 (HCC 2998 [4]; 48 h): 250 nM | TGI (HCC 2998 [4]; 48 h): 570 nM | GI50 (HCC 2998 [4]; Homo sapiens, HCC 2998, 48 h): 248 nM | TGI (HCC 2998 [4]; Homo sapiens, HCC 2998, 48 h): 573 nM | CC50 (HCC 2998 [4]; Homo sapiens, HCC 2998, read-out: LC50 (the source's name)): 2620 nM | inhibition of growth at 10 µM (HCT-116 [5]): 95.5% | inhibition of growth at 10 µM (MCF7): 94.8% | growth at 100 µM (A498 [6]): -98% | growth at 100 µM (786-0): -95% | growth at 100 µM (SNB-19): -83% | growth at 100 µM (SW-620): -69% | growth at 100 µM (RPMI-8226): 1% | growth at 1 µM (A498 [7]): 66% | growth at 1 µM (NCI/ADR-RES [8]): 79% | growth at 1 µM (SF-295): 74% | growth at 1 µM (SF-268 [9]): 65% | growth at 1 µM (HCT-116 [10]): -91% | growth at 0.1 µM (A498 [11]): 76% | growth at 0.1 µM (NCI/ADR-RES [12]): 95% | growth at 0.1 µM (SK-MEL-5): 101% | growth at 0.1 µM (SR): 88% | growth at 0.1 µM (MOLT-4): 95% | growth at 0.01 µM (TK-10): 91% | growth at 0.01 µM (RXF 393): 100% | growth at 0.01 µM (CAKI-1): 92% | growth at 0.01 µM (NCI/ADR-RES [13]): 100% | growth at 0.01 µM (OVCAR-4): 98% | growth at 0.01 µM (UACC-257): 89% | growth at 0.01 µM (MDA-MB-435): 99% | growth at 0.01 µM (LOX IMVI): 87% | growth at 0.01 µM (HCC 2998 [14]): 99%
